The subject of assay [1] is Pyruvate Kinase M2 (PKM2). Also noted: method as in ref 7-8 (a number printed in a supplementary file, which may have a reference list of its own: not looked up in the article's list). The conditions noted are these: cited from earlier work.
For another assay, the system named is Hexokinase II. Also noted: method as in ref 2-4 (a number printed in a supplementary file, which may have a reference list of its own: not looked up in the article's list). The conditions noted are these: cited from earlier work.
The test system of assay [2] is receptor-interacting protein kinase 2 (RIPK2). Also noted: method as in ref 11-12 (a number printed in a supplementary file, which may have a reference list of its own: not looked up in the article's list). The settings on record: cited from earlier work.
In assay [3] the test system is human endometrial cancer cells (HEC1A). The settings on record: cited from earlier work; for selectivity of parent naphthoimidazole analogues / IC50: previous study, non-salt parent compounds; for IC50: read-out: IC50 of parent naphthoimidazole analogues.
Assay [4] concerns normal endometrial stromal cells (MAD11). The assay is described as follows: MTT cell viability assay, MAD11 cells. The conditions noted are these: Homo sapiens, MAD11, 48 h, MAD11 non-cancerous cells, n = 3 biological replicates, read-out: Mean IC50 (μM) MAD11 ± SD. Type of assay: cell-based, human. The method, then:
(§1) The cytotoxic effects of the synthesized salt compounds were assessed against human endometrial cancer cells (HEC1A) and normal endometrial stromal cells (MAD11) using the MTT cell viability assay. BH10 was used as the reference compound.
(§2) Reagents and equipment: phosphate-buffered saline (PBS) (Sigma Aldrich, St. Louis, MO, USA), 10× Trypsin-EDTA solution (Sigma Aldrich, 59418C), Dulbecco’s Modified Eagle’s Medium (Sigma Aldrich), foetal bovine serum (FBS), and 100× penicillin-streptomycin solution (Sigma Aldrich P4333). The MTT reagent was prepared by dissolving 5 mg/mL MTT powder in sterile PBS, followed by filtration, whereas the MTT solvent contained 4 mM HCl and 0.1% Nonidet P-40 in isopropanol. Dimethyl sulfoxide (DMSO) was also sourced from Sigma Aldrich. Absorbance measurements were acquired using Kaleido 1.0 software coupled with an EnSight™ HH3400 Multimode Plate Reader (PerkinElmer, Waltham, MA, USA). HEC-1-A endometrial cancer cells were obtained from ATCC, while MAD11 endometrial stromal cells were provided by Dr. Hui Li (University of Virginia). MAD11 cells, derived from non-cancerous donors, were immortalized via human telomerase reverse transcriptase (hTERT).
(§3) Method: The methods were adapted from Byrne et al. (2014). Cells were cultured in DMEM supplemented with 10% FBS and 1% Pen-Strep solution (100 U/mL penicillin and 0.1 mg/mL streptomycin). Upon reaching ~70% confluence, the cells were washed with sterile PBS and detached using a 1× trypsin-EDTA solution. The cells were then resuspended in culture media, counted, and seeded into sterile 96-well tissue culture plates (2500 cells per well for MAD11; 5000 cells per well for HEC-1-A). The cells were incubated at 37 °C with 5% CO2 for 24 h prior to drug treatment. Drugs were serially diluted in culture medium to final concentrations of 100, 50, 25, 12.5, 6.3, 3.1, 1.6, and 0.8 µM per well and applied in triplicate. For compounds 7a–f and 15, as their IC₅₀ values were below 0.8 µM, an additional set of three biological replicates was conducted using a lower concentration range (500, 250, 125, 63, 31, 16, 8, and 4 nM). To minimize variations due to DMSO (vehicle), both drug dilutions and control wells received the same final concentration of DMSO. After 48 h of incubation at 37 °C with 5% CO2, cell viability was assessed by adding 20 µL/well of MTT reagent for 3 h. Supernatants were aspirated, and formazan crystals were dissolved in MTT solvent before absorbance was measured at 590/620 nm using an EnSight™ HH3400 Multimode Plate Reader. Cell viability was expressed as a percentage of the vehicle (DMSO-treated) control, with results reported as mean ± SEM from three independent experiments. IC50 values were determined using GraphPad Prism 9.
On the technique in general: Formazan colour is commonly taken as a measure of viable cells.

In assay [5] the test system is human endometrial cancer cells (HEC1A). Kind of assay: MTT cell viability assay, HEC1A cells. It counts as cell-based. On the procedure:
as §1, §2, §3

In assay [6] the test system is Indoleamine 2,3-dioxygenase 1 (IDO1). Also noted: method as in ref 9-10 (a number printed in a supplementary file, which may have a reference list of its own: not looked up in the article's list). The conditions noted are these: cited from earlier work.
The next assay relates to GLUT1. Details: method as in ref 5-6 (a number printed in a supplementary file, which may have a reference list of its own: not looked up in the article's list). The conditions noted are these: cited from earlier work.
Assay [7] concerns Survivin suppression (indirect). Also noted: method as in ref 13 (a number printed in a supplementary file, which may have a reference list of its own: not looked up in the article's list). The settings on record: cited from earlier work.
Where [8] appears, read: reported target as listed, test system not given, read-out: IC50 (Table S1).

The values below come from publication PMC12073298, “Design, Synthesis, and Biological Evaluation of Naphthoquinone Salts as Anticancer Agents” (Molecules, 2025).

Like-named read-outs stand apart in the source and are kept apart here.

As for `CC(C)=CC[C@@H](O)C1=CC(=O)c2c(O)ccc(O)c2C1=O` [Shikonin], the “Selectivity Notes (Table S1)” value in assay [1] (Table S1 comparison) is “Low”. For the same molecule, the IC50 (usually the concentration at which inhibition is half-maximal) in assay [1] (setting [8]) is 19.9 µM.

As for `O=C(O)c1nn(Cc2ccc(Cl)cc2Cl)c2ccccc12` [Lonidamine], the “Selectivity Notes (Table S1)” value with Hexokinase II (Table S1 comparison) is on record as “Low”. For the same molecule, on Hexokinase II (setting [8]), the IC50 was 170 µM.

For `Cc1n(Cc2ccccc2)c2c([n+]1Cc1ccc(F)cc1)C(=O)c1ccccc1C2=O` [cRIPGBM], the “Selectivity Notes (Table S1)” value in [2] (Table S1 comparison) is recorded as “Variable, brain-specific”. Besides, the IC50 in [2] (setting [8]) is 0.027 µM.

For `O=C1c2ccccc2C(=O)c2c1nc(C(F)(F)F)n2Cc1cn(CCN2CCCCC2)nn1` [Compound 16b], the “selectivity of parent naphthoimidazole analogues” value in [3] was 2.01.

With `O=C1C(Cl)=C(NCCN2CCOCC2)C(=O)c2ccccc21` [BH10, reference compound], the IC50 in [4] turned out to be 28.2 ± 12.2 µM; in assay [5] (Homo sapiens, HEC-1-A, 48 h, HEC1A cells, MTT, 48 h, n = 3 biological replicates, read-out: Mean IC50 (μM) HEC1A ± SD), 11.8 ± 5.19 µM. In assay [3] (hit compound, earlier work), the “selective toxicity (IC50 value in non-cancerous cells/IC50 value of cancer cells)” value is listed as 2.38. Besides, the “Selectivity Ratio” value in assay [5] (IC50 value from MAD11 cells divided by the IC50 value from HEC1A cells) turned out to be 2.38.

Consider `CC(C)=CCC1=C(O)C(=O)c2ccccc2C1=O` [Lapachol], for which the “Selectivity Notes (Table S1)” value in assay [6] (Table S1 comparison) is on record as “Limited”. Besides, in assay [6] (setting [8]), the IC50 was 25 µM.

With `Cc1nc2c(n1CCCN1CCCCC1)C(=O)c1ccccc1C2=O` [Compound 18], in [3], the “selectivity of parent naphthoimidazole analogues” value was 3.59 and the IC50 was 6.4 µM.

Take `O=C(CCc1ccc(O)cc1)c1c(O)cc(O)cc1O` [Phloretin]: the “Selectivity Notes (Table S1)” value in the assay with GLUT1 (Table S1 comparison) is listed as “Limited”. Besides, the IC50 in the assay with GLUT1 (setting [8]) was ~2 µM.

With `COCCn1c2c([n+](Cc3cnccn3)c1C)C(=O)c1ccccc1C2=O` [YM155], the “Selectivity Notes (Table S1)” value in [7] (Table S1 comparison) was 18. Besides, in assay [7] (setting [8]), the 50% inhibitory concentration (IC50) is 0.0137 µM.

Take `O=C1c2ccccc2C(=O)c2c1nc(C(F)(F)F)n2Cc1cn(CCN2CCOCC2)nn1` [Compound 16a]: in assay [3], the “selectivity of parent naphthoimidazole analogues” value was 1.73 and the IC50 was 18.1 µM.

In the case of `O=C1c2ccccc2C(=O)c2c1nc(C(F)(F)F)n2Cc1cn(CCCN2CCCCC2)nn1` [Compound 16c], in assay [3], the “selectivity of parent naphthoimidazole analogues” value is on record as 2.77 and the IC50 was 2.6 µM.
